Ki data for 50 compounds are collected here from paper doi:10.1101/2024.06.25.600598v1 (biorxiv, 2024).

Each structure is given as a SMILES string. Where a name gives a salt, the structure may show the parent alone. Numbered stars: 1 amine (or outer) side, 2 acyl side, 3 side chain; on linkers, the order of the positions; unused ones are H or OH. Bridge positions count the residues as written; N and C are the ends. Square brackets hold non-standard residues; d marks the D form. Side chains are listed from the residue outwards. Peptide text beside a SMILES is read from it. * marks the point of attachment. Ethylenediamine = C(CN[*:2])N[*:1]; Hyp = O=C(O)[C@@H]1C[C@@H](O)CN1; hArg = N=C(N)NCCCC[C@H](N)C(=O)O; Phg = N[C@H](C(=O)O)c1ccccc1; CO = O=C([*:1])[*:2]; Bn = c1ccc(C*)cc1; Mpa = O=C(O)CCS

The assay deals with T1, fibroblast activation protein (FAP; rhFAP, SLIN-tagged hFAP) (Homo sapiens, UniProt Q12884).
T1 sequence (Q12884 35-760): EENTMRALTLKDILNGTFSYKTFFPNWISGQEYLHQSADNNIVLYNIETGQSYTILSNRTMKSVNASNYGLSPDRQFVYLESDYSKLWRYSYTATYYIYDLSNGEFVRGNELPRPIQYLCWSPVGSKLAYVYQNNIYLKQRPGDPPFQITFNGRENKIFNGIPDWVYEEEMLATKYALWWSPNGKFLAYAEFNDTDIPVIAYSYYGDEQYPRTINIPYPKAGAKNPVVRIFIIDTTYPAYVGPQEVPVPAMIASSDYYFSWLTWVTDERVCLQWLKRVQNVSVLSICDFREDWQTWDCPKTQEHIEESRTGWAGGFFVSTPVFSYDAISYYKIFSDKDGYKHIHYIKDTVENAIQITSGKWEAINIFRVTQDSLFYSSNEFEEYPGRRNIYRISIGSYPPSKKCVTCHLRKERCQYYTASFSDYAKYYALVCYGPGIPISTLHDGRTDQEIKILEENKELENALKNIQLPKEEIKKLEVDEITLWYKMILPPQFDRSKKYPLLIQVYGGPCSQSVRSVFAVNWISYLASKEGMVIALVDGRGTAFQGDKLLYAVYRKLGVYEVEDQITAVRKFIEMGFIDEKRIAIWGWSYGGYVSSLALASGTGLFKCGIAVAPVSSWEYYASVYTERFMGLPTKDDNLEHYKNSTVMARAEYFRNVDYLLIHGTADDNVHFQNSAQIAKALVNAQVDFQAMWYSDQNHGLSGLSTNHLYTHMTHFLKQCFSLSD
Nature of the assay: biochemical.
For the compound `CC(C)C[C@H](NC(=O)CNC(=O)c1cc(Cl)ccc1Cl)B1OC(=O)C(CC(=O)O)(CC(=O)O)O1` [Ixazomib citrate], affinity was put at a Ki of 25.1 µM. For `O=c1cc(-c2ccccc2)oc2cc(O)c(O)c(O)c12` [Baicalein], the Ki came out at 36.8 µM. On to `CCCc1nc(C)c2c(=O)[nH]c(-c3cc(S(=O)(=O)N4CCN(CC)CC4)ccc3OCC)nn12` [Vardenafil (hydrochloride)], for which the Ki is 39.7 µM. Then `CC[N+](C)(C)c1cccc(O)c1` [Edrophonium (chloride)], with 35.3 µM; and `COc1cc(C)c2c(Oc3cccc(C(F)(F)F)c3)c(OC)cc(NC(C)CCCN)c2n1` (centres unmarked) [Tafenoquine (Succinate)], with 16.3 µM. The result for `COc1cc(NCc2ccc3nc(N)nc(N)c3c2C)cc(OC)c1OC` [Trimetrexate] reads 27.2 µM. Compound `NC(=NCc1ccccc1)NC(=O)c1nc(Cl)c(N)nc1N` [Benzamil (hydrochloride)] yielded a Ki of 35.3 µM. The result for `CCCCc1nc(C)c(CC(=S)N(C)C)c(=O)n1Cc1ccc(-c2ccccc2-c2nnn[nH]2)cc1` [Fimasartan] reads 14.6 µM; that for `Cc1ccc(NC(=O)C2(c3ccc4c(c3)OC(F)(F)O4)CC2)nc1-c1cccc(C(=O)O)c1` [Lumacaftor], 10.1 µM. Then `Nc1c2ccccc2nc2ccccc12` [9-Aminoacridine], with 12.4 µM; and `Cc1ncc(NC(=O)c2ccc(CN3CCN(C)CC3)c(C(F)(F)F)c2)cc1Nc1nccc(-c2cccnc2)n1` [Flumatinib (mesylate)], with 12.2 µM; and `CC1(C)S[C@@H]2[C@H](NC(=O)C(C(=O)Oc3ccc4c(c3)CCC4)c3ccccc3)C(=O)N2[C@H]1C(=O)O` (some centres unmarked) [Carindacillin (sodium)], with 14.5 µM. `CNCc1ccc(-c2[nH]c3cc(F)cc4c3c2CCNC4=O)cc1` [Rucaparib] came in with a Ki of 44.4 µM. Then `CC/C=C\C/C=C\C/C=C\C/C=C\C/C=C\CCCC(=O)O` [Eicosapentaenoic Acid], with 15.8 µM. With `C=CCN1C[C@H](C(=O)N(CCCN(C)C)C(=O)NCC)C[C@@H]2c3cccc4[nH]cc(c34)C[C@H]21` [Cabergoline], affinity was put at a Ki of 17.5 µM. Then `COC(=O)c1ccc2c(c1)NC(=O)/C2=C(\Nc1ccc(N(C)C(=O)CN2CCN(C)CC2)cc1)c1ccccc1` [Nintedanib esylate], with 27.7 µM.

For the compound `NCc1ccccc1CC(=O)N[C@@H]1C(=O)N2C(C(=O)O)=C(CSc3nnnn3CC(=O)O)CS[C@H]12` [Ceforanide], affinity was put at a Ki of 10.7 µM. The result for `Cc1oc(=O)oc1COC(=O)C1=C([C@H]2CCCO2)S[C@@H]2[C@@H]([C@@H](C)O)C(=O)N12` [Faropenem daloxate] reads 13.1 µM; that for `Cc1c(-c2ccccc2)oc2c(C(=O)OCCN3CCCCC3)cccc2c1=O` [Flavoxate (hydrochloride)], 33.6 µM; that for `N=C(N)NCCCC[C@@H]1NC(=O)CCSSC[C@@H](C(N)=O)NC(=O)[C@@H]2CCCN2C(=O)[C@H](Cc2c[nH]c3ccccc23)NC(=O)[C@H](CC(=O)O)NC(=O)CNC1=O` [Eptifibatide] ([Mpa][hArg]GDWPC-NH2; disulfide 1-7), 27.8 µM. Consider `CC(=O)O[C@H]1C[C@@H]2CC[C@@H]3[C@H](CC[C@@]4(C)[C@H]3C[C@H]([N+]3(C)CCCCC3)[C@@H]4OC(C)=O)[C@@]2(C)C[C@@H]1N1CCCCC1` [Vecuronium (bromide)], for which the affinity, expressed as Ki, was 25.8 µM. `COc1ccc(C(=O)N2CCCC2=O)cc1` [Aniracetam] returned an inhibitory constant (Ki) of 40.4 µM. Then `O=C1c2c(O)ccc(O)c2C(=O)c2c(NCCNCCO)ccc(NCCNCCO)c21` [Mitoxantrone (dihydrochloride)], with 11.6 µM. The result for `CC(C)(C)OC(=O)N[C@H]1CCCCC/C=C\[C@@H]2C[C@@]2(C(=O)NS(=O)(=O)C2CC2)NC(=O)[C@@H]2C[C@@H](OC(=O)N3Cc4cccc(F)c4C3)CN2C1=O` [Danoprevir] reads 19.3 µM; that for `CO/N=C(\C(=O)N[C@@H]1C(=O)N2C(C(=O)O)=C(CSc3nnnn3C)CS[C@H]12)c1csc(N)n1` [Cefmenoxime (hydrochloride)], 25.1 µM.

`C=CC[N+]1([C@H]2C[C@H]3[C@@H]4CC[C@H]5C[C@H](OC(C)=O)[C@@H](N6CCCCC6)C[C@]5(C)[C@H]4CC[C@]3(C)[C@H]2OC(=O)CC)CCCCC1` [Rapacuronium bromide] yielded an inhibitory constant (Ki) of 14.1 µM. Then `CN(C)c1ccc2nc3ccc(=[N+](C)C)cc-3sc2c1` [Methylene blue (trihydrate)], with 19 µM; and `NC(=O)c1cccc2cn(-c3ccc([C@@H]4CCCNC4)cc3)nc12` [Niraparib (tosylate)], with 16.3 µM. Then `Cn1c(CCCC(=O)O)nc2cc(N(CCCl)CCCl)ccc21` [Bendamustine], with 25 µM.

Regarding `COc1cc(C(=O)NS(=O)(=O)c2ccccc2C)ccc1Cc1cn(C)c2ccc(NC(=O)OC3CCCC3)cc12` [Zafirlukast], the Ki was 13.4 µM. Then `CO/N=C(\C(=O)N[C@@H]1C(=O)N2C(C(=O)O)=C(CSC(=O)c3ccco3)CS[C@H]12)c1csc(N)n1` [Ceftiofur (sodium)], with 23 µM; and `CC(C)C[C@H](NC(=O)CNC(=O)c1cc(Cl)ccc1Cl)B(O)O` [Ixazomib], with 33 µM; and `NCCCC[C@@H]1NC(=O)[C@@H](Cc2c[nH]c3ccccc23)NC(=O)[C@H](c2ccccc2)NC(=O)[C@@H]2C[C@@H](OC(=O)NCCN)CN2C(=O)[C@H](Cc2ccccc2)NC(=O)[C@H](Cc2ccc(OCc3ccccc3)cc2)NC1=O` [Pasireotide (acetate)] (cyclo([Hyp]([CO-Ethylenediamine])[Phg][dW]KY(Bn)F)), with 19.9 µM.

Consider `CC(C)(O/N=C(\C(=O)N[C@@H]1C(=O)N2C(C(=O)[O-])=C(C[n+]3ccccc3)CS[C@H]12)c1csc(N)n1)C(=O)O` [Ceftazidime (pentahydrate)], for which the Ki was determined as 20.8 µM.

The compound `COCC1=C(C(=O)OC(C)OC(=O)OC(C)C)N2C(=O)[C@@H](NC(=O)/C(=N\OC)c3csc(N)n3)[C@H]2SC1` (some centres unmarked) [Cefpodoxime Proxetil] displayed a Ki of 34.6 µM. The compound `CC[C@@H]1C(=O)N(C)c2cnc(Nc3ccc(C(=O)N[C@H]4CC[C@H](N5CCN(CC6CC6)CC5)CC4)cc3OC)nc2N1C(C)C` [Volasertib] came in with a Ki of 10.9 µM. Then `Cc1nnc(SCC2=C(C(=O)O)N3C(=O)[C@@H](NC(=O)Cn4cc(Cl)c(=O)c(Cl)c4)[C@H]3SC2)s1` [Cefazedone], with 25.6 µM; and `Nc1ccc2cc3ccc(N)cc3nc2c1` [Proflavine (hemisulfate)], with 26.7 µM; and `CCOC(=O)OC(C)OC(=O)[C@@H]1N2C(=O)[C@@H](NC(=O)[C@H](N)c3ccccc3)[C@H]2SC1(C)C` (some centres unmarked) [Bacampicillin (hydrochloride)], with 12.7 µM.

The compound `CCCC[C@H](NC(C)=O)C(=O)N[C@H]1CC(=O)NCCCC[C@@H](C(=O)O)NC(=O)[C@H](Cc2c[nH]c3ccccc23)NC(=O)[C@H](CCCN=C(N)N)NC(=O)[C@@H](Cc2ccccc2)NC(=O)[C@H](Cc2cnc[nH]2)NC1=O` [Bremelanotide (Acetate)] displayed a Ki of 25 µM.

Compound `CN1Cc2c(Cl)cc(Cl)cc2[C@H](c2cccc(S(=O)(=O)NCCOCCOCCNC(=O)NCCCCNC(=O)NCCOCCOCCNS(=O)(=O)c3cccc([C@@H]4CN(C)Cc5c(Cl)cc(Cl)cc54)c3)c2)C1` [Tenapanor] yielded a Ki of 24.9 µM. `CCC(=O)O[C@@H](O[P@](=O)(CCCCc1ccccc1)CC(=O)N1C[C@H](C2CCCCC2)C[C@H]1C(=O)O)C(C)C` [Fosinopril (sodium)]: the Ki stood at 11.6 µM. The result for `O=NN(CCCl)C(=O)NCCCl` [Carmustine] reads 17.1 µM. Turning to `Cc1ccc(NC(=O)c2ccc(CN3CCN(C)CC3)cc2)cc1Nc1nc(-c2cccnc2)cs1` [Masitinib], the Ki was 43.9 µM. In turn, `CC(C)=CCOc1ccc(/C=C/C(=O)c2ccc(OCC=C(C)C)cc2OCC(=O)O)cc1` [Sofalcone] yielded a Ki of 16 µM. For the compound `CC(=O)OCC1=C(C(=O)O)N2C(=O)[C@@H](NC(=O)CSC(=NC(C)C)NC(C)C)[C@H]2SC1` [Cefathiamidine], the affinity corresponds to a Ki of 23.6 µM.

As to `NC(=O)c1cc[n+](CC2=C(C(=O)O)N3C(=O)[C@@H](NC(=O)[C@@H](c4ccccc4)S(=O)(=O)[O-])[C@H]3SC2)cc1` [Cefsulodin (sodium)], the Ki stood at 41.4 µM. In turn, `CCOc1ccc2nc3cc(N)ccc3c(N)c2c1` [Ethacridine (lactate monohydrate)] gave an inhibitory constant (Ki) of 14.4 µM. Then `CCOC(=O)[C@@](C)(N)Cc1ccc(O)c(O)c1` [Methyldopate], with 29.6 µM; and `CO[C@H]1/C=C/O[C@@]2(C)Oc3c(C)c(O)c4c(O)c(c(/C=N/N5CCN(C6CCCC6)CC5)c(O)c4c3C2=O)NC(=O)/C(C)=C\C=C\[C@H](C)[C@H](O)[C@@H](C)[C@@H](O)[C@@H](C)[C@H](OC(C)=O)[C@@H]1C` [Rifapentine], with 11.9 µM.

A word on the Ki: it is the equilibrium dissociation constant of an inhibitor or competing ligand from its target. Read a low Ki as a stronger hold on the target.
